Measured values published in article PMC5736782, “The Differential Absorption of a Series of P-Glycoprotein Substrates in Isolated Perfused Lungs from Mdr1a/1b Genetic Knockout Mice can be Attributed to Distinct Physico-Chemical Properties: an Insight into Predicting Transporter-Mediated, Pulmonary Specific Disposition” (Pharmaceutical Research, 2017).

Tests used:
[1] = test system: P-glycoprotein (Mdr1a/Mdr1b) in isolated perfused mouse lung; experiment: Isolated perfused mouse lung (IPML) airway-to-perfusate absorption, Mdr1a/1b (+/+) vs (−/−); conditions: male, mouse, 50 μM
Procedure: The atria and the lower half of the heart were cut to allow the free flow of perfusate. The lungs were removed and suspended vertically in a custom water-jacketed glass thorax (Radleys, Essex, UK) maintained at 37°C.
Following dosing of compound into the IPML airways serial samples (250 μL) were collected for bioanalysis from the 10 mL recirculating perfusate reservoir. Each sample collected from the reservoir was replaced with an equal volume of fresh warmed, oxygenated perfusate. Upon termination of the experiment the dose solutions, apparatus washings and perfusate samples were collected for mass balance calculations enabling determination of the actual total dose delivered to the lungs.
Radioactive compounds were directly analysed by liquid scintillation counting. Volumes of 50 μL perfusate samples were mixed with 3 mL of Scintisafe 3 Liquid Scintillation Fluid (Fisher, UK) and transferred to vials for scintillation counting using a TriCarb 2900TR (Packard Bioscience, USA).
After accounting for the mass of compound removed at each sample point, plots of the cumulative ‘%deposited dose absorbed’ versus ‘time’ were generated and subject to nonlinear regression analysis according to a first-order absorption one-compartment accumulating model (Eq. 1) to generate estimates for the extent (F) and rate (Ka) of absorption from the IPML airways to the recirculating perfusate.
The data was also subject to standard non-compartmental analysis, specifically Area Under Curve (AUC0–30 min) of ‘%deposited dose absorbed’ versus ‘time’ (units: %Dose.min) and reflecting for the exclusively accumulating perfusate ‘compartment’ the exposure arising from the IPML absorption process alone.

[2] = biological target: T1, mouse Bcrp (Mus musculus, UniProt Q7TMS5); experiment: Gentest ABC transporter membrane ATPase assay; type: biochemical; conditions: ATPase; 0 indicates no enzyme turnover
T1 construct: purchased Corning (Gentest), Germany
T1 sequence (Q7TMS5 1-657): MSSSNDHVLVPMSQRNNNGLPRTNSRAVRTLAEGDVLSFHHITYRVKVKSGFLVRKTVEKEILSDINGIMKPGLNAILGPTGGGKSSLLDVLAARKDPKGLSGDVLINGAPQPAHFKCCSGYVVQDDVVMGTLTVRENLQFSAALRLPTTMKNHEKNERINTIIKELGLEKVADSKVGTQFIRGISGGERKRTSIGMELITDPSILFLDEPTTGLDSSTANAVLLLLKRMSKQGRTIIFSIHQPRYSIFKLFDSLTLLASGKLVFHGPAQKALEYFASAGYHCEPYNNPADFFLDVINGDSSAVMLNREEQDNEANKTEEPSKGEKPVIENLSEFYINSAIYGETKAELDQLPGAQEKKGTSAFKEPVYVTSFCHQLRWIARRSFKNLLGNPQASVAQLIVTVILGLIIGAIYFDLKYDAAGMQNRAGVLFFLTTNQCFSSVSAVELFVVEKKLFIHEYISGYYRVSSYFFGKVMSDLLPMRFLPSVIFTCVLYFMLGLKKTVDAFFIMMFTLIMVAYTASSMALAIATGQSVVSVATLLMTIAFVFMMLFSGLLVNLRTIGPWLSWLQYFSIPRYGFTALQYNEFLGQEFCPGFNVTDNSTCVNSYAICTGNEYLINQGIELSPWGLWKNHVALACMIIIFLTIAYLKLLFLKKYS
Text: (§1) The Gentest ATPase assay (Corning, Germany) was used to investigate the binding kinetics of the panel of P-gp substrates against membranes constituted to display human MDR1, mouse Mdr1a, mouse Mdr1b and mouse Bcrp. The assays measure the accumulation of inorganic phosphate (absorbance at 800 nm) produced in the breakdown of ATP to ADP. […] The assays were used in accordance with the manufacturer’s protocol to calculate (GraphPad Prism) the Michaelis-Menten parameters Km and VMAX. For the assay test compounds were serially diluted to produce an assay concentration range of 0–300 μM with the kinetics of ATP turnover examined over 30 min at 37°C.

[3] = biological target: human MDR1 (P-gp) (Homo sapiens, UniProt P08183); experiment: Gentest ABC transporter membrane ATPase assay; conditions: human, membranes displaying human MDR1 (Gentest ATPase assay)
Text: as §1

[4] = biological target: human MDR1 (Homo sapiens, UniProt P08183); experiment: Gentest ABC transporter membrane ATPase assay; conditions: ATPase, 0–300 μM, 30 min, 37°C
Text: as §1

[5] = Immobilised artificial membrane (IAM) chromatography; type: physicochemical; conditions: extrapolated to 100% water; mean of four experiments
Procedure: IAM chromatography provided an experimental measure of substrate membrane affinity and phospholipid interaction. The IAM column (Regis Technologies Inc., Hichrom, Reading, UK; IAM.PC.DD2 10 cm x 4.6 mm ID column) was run under isocratic eluting conditions with the retention of all compounds determined under three mobile phase conditions: 10%, 20% and 30% acetonitrile in water, and from which the theoretical retention time in 100% water was calculated by linear regression. LogK^IAM values were calculated according to Eq. 2:2 LogK^IAM=LogTr−T0/T0
where Tr and T0 are respectively the retention times of the substrate in 100% water and of the unretained compound, i.e. eluting within the solvent front of 75 s in all experiments.

[6] = biological target: mouse Mdr1b (Mus musculus, UniProt P06795); experiment: Gentest ABC transporter membrane ATPase assay; conditions: 0–300 μM, 30 min, 37°C
Text: as §1

[7] = test system: P-gp (Mdr1a/1b) in mouse intestinal segments; experiment: Ussing chamber intestinal permeability, ileal segments Mdr1a/1b (+/+) vs (−/−); conditions: mucosal to serosal, 50 μM, 180 min
Procedure: The bathing fluid for both mucosal and serosal surfaces (3 mL volume in each chamber) comprised oxygenated Krebs-Henseleit buffer maintained at 37°C (heating block) under stirred conditions (gas flow manifold). […] Any intestinal segments presenting an initial TEER of lower than 80 Ω.cm^2 were discarded prior to the experiment, likewise any segments whose TEER decreased by more than 10% over the course of the experiment were excluded.
Thereafter permeability coefficients were determined according to Eq. 4:4 ρ=dM/dt/A^∗C0

[8] = biological target: mouse Mdr1a (Mus musculus, UniProt P21447); experiment: Gentest ABC transporter membrane ATPase assay; conditions: 0–300 μM, 30 min, 37°C
Text: as §1

[9] = test system: P-gp; set-up: method as in PMID 23670704; conditions: IPRL and IPML models; cited from earlier work
[10] = Multi-lamellar liposome vesicle (MLV) partitioning; type: physicochemical; conditions: (C0−CS)/C0, 1 μg/mL, 4 h, 37°C, PBS pH 7.4
Procedure: MLVs were formed as previously described ([20]). Briefly, solutions of 8 mg phosphatidylcholine and 2 mg phosphatidylglycerol in 10 mL chloroform were completely dried to a lipid film (rotation under vacuum).
These preparations were then incubated at 37°C for 4 h under shaking conditions to allow equilibration of compound between the lipid and aqueous fractions. The MLVs were then pelleted and 100 μL of supernatant removed for analysis by radiometric or LC-MS/MS methods as described above. Partitioning into the MLVs was determined according to Eq. 3:3 MLVpartitioning=C0−CS/C0
where C0 is the initial compound concentration (1 μg/mL) and CS is the compound concentration present in the aqueous supernatant at the end of 4 h incubation.

mouse Mdr1b, sequence (P06795 whole entry): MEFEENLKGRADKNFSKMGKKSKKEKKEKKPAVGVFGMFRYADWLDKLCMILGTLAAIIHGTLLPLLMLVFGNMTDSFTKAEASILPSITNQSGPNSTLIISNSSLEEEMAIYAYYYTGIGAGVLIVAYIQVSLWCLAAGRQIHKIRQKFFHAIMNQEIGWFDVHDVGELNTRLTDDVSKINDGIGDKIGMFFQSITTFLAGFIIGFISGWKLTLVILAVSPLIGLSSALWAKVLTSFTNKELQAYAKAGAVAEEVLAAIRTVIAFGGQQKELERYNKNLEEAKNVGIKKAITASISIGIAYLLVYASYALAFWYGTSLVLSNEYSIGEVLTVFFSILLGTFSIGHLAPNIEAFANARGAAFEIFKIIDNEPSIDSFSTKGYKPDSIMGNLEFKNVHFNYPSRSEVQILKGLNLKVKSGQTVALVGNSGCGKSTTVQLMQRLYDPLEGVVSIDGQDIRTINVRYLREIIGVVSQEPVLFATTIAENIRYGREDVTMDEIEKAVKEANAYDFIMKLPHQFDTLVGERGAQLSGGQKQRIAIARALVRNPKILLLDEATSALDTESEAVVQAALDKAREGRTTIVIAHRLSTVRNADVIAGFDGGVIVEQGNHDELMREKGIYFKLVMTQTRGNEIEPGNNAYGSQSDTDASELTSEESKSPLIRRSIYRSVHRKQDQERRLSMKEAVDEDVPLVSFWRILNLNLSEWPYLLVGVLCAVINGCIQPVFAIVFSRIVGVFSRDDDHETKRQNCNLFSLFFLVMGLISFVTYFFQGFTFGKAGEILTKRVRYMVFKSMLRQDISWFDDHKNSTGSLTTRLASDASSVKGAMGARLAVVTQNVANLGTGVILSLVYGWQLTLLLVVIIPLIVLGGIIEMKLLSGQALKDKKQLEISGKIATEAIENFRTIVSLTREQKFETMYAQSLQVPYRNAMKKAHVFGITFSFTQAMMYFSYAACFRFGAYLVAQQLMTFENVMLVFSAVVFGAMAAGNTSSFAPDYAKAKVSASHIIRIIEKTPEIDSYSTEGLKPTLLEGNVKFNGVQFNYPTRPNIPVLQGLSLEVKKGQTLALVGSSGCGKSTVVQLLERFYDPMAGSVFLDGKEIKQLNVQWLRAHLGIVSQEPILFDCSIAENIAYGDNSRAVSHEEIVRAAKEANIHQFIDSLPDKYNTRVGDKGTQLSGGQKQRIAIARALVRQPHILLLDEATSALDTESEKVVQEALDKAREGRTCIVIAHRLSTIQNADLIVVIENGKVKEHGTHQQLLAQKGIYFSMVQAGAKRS
mouse Mdr1a, sequence (P21447 whole entry): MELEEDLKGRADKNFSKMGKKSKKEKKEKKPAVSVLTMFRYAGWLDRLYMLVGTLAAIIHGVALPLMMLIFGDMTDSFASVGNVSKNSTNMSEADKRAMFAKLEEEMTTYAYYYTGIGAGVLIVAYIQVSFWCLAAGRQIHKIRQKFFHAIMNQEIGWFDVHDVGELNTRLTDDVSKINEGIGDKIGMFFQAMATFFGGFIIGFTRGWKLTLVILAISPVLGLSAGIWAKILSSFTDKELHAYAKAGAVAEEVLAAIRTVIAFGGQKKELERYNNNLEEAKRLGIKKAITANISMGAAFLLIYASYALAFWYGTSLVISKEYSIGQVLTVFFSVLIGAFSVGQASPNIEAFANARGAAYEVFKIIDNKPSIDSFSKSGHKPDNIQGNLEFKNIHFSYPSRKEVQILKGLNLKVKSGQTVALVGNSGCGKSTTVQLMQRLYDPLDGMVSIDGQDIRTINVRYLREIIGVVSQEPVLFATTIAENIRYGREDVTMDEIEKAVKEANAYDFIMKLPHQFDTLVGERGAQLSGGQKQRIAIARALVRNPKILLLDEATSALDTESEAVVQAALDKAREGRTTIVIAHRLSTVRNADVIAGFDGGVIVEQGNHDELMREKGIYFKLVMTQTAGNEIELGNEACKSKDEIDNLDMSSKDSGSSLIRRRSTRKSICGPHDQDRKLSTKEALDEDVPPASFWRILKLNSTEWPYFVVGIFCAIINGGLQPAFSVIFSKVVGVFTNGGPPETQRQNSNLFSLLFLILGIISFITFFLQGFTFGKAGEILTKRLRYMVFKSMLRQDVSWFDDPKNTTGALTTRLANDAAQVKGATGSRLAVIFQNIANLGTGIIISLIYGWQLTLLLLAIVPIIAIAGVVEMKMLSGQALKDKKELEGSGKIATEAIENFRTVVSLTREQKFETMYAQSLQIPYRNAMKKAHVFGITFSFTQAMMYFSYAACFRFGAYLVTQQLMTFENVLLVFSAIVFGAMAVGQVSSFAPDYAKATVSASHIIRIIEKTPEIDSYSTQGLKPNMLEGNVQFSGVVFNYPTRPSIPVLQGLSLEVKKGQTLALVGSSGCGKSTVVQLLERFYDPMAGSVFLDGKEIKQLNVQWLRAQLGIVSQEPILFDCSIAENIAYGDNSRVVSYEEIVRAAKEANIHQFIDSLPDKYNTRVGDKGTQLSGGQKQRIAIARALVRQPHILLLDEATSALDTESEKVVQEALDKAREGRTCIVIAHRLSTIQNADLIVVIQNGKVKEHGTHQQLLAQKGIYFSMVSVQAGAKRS
human MDR1 (P-gp), sequence (P08183 whole entry): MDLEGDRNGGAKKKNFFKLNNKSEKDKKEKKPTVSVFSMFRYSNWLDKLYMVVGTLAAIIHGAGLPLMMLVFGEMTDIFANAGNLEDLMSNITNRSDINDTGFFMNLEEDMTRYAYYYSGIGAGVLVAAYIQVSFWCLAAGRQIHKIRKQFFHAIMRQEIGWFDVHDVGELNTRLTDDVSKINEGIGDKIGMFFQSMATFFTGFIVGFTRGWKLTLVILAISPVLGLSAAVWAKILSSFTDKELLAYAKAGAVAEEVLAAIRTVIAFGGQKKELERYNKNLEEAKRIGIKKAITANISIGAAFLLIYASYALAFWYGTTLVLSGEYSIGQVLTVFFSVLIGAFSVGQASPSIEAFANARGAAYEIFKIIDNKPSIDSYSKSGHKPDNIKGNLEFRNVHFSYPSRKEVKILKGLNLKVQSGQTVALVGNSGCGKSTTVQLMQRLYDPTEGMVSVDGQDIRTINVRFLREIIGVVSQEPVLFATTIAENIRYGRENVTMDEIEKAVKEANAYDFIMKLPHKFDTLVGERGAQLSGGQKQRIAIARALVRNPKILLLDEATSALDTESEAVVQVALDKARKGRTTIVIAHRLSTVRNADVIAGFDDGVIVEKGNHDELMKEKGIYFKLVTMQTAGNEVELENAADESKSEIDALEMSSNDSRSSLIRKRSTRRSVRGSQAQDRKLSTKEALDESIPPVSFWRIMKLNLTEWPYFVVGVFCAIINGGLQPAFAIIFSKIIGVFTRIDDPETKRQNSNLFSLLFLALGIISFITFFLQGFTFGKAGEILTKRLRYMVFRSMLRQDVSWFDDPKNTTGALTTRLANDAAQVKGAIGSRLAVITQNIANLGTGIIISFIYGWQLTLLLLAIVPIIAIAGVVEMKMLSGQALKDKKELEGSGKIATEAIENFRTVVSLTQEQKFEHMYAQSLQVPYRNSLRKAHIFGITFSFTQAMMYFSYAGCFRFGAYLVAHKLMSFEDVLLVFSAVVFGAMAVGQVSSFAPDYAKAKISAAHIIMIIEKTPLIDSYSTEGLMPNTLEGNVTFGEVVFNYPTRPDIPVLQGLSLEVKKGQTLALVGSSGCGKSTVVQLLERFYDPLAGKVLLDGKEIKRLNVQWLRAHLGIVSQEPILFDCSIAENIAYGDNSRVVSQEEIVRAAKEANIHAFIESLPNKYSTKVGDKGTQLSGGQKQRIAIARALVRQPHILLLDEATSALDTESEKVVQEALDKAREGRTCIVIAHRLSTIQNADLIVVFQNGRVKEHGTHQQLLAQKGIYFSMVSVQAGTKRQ
human MDR1, sequence (P08183 whole entry): as above

Mdr1a/1b (+/+) ‘F’ estimate by model fit [95% CI) [1]: 25.5 [11.4 to 39.6]
Mdr1a/1b (-/-) ‘F’ estimate by model fit [95% CI) [1]: 29.1 [19.5 to 38.6]
Mdr1a/1b (+/+) % Deposited Dose absorbed ([1]; 30 min): 20.0%
Mdr1a/1b (-/-) % Deposited Dose absorbed ([1]; 30 min): 20.0%
Vmax [2]: 0 µM/min
Km at 30 min [3]: 24.9 µM
Vmax [4]: 41.3 µM/min
LogK^IAM [5]: 1.24
Km [6]: 32 µM
Vmax [6]: 47.1 µM/min
Mdr1a/1b (−/−) Permeability coefficient ([7]; P-gp knockout intestinal segments): 15.73 ± 3.52 cm/s (x10^−6)
Mdr1a/1b (+/+) Permeability coefficient ([7]; wild-type intestinal segments): 1.56 ± 0.69 cm/s (x10^−6)
Km [8]: 31.7 µM
Vmax [8]: 39.5 µM/min
MLV Partitioning [10]: 0.45
SMILES: CC(C)(C)NC(=O)[C@@H]1C[C@@H]2CCCC[C@@H]2CN1C[C@@H](O)[C@H](Cc1ccccc1)NC(=O)[C@H](CC(N)=O)NC(=O)c1ccc2ccccc2n1 [Saquinavir, saquinavir]
effect of P-gp inhibition (GF120918) upon pulmonary absorption [9]: unaffected
